Assay results reported in patent US20110195910A1, “USE OF TOCOTRIENOL COMPOSITION FOR THE PREVENTION OF CANCER” (DAVOS LIFE SCIENCE PTE. LTD., priority 2008, published 2011).

How the values were obtained:
[1] = Single acute toxicity test (MTD); format: in vivo, C57BL/6 black mice; settings: single dose i.p., 30-day observation
Description: 4.1.5 Single Acute Toxicity Test—The maximum tolerated dose (MTD) was determined by increasing doses on different groups of mice until the highest dose without any mortality is found. Briefly, ninety C57BU6 black mice (ten for each group) received single dose i.p injection containing 1, 2, 4, 8, 12, 16, 20, 30 and 40 mg of γ-T3 in 100 μl injection volume.

[2] = Pharmacokinetics of γ-tocotrienol in mice (serum, HPLC); format: in vivo, C57BL/6 black mice; settings: 1 mg γ-T3 i.p.
Description: 4.1.4 Pharmacokinetics of γ-Tocotrienol in Mice—C57BL/6 black mice were purchased from The Jackson Laboratory (Bar Harbor, Me., USA). Forty 5-week old mice were given a single dose i.p injection containing 1 mg of γ-T3. Five mice were sacrificed at different time points (10 min, 30 min, 1 h, 3 h, 6 h, 24 h, 48 h and 72 h). Blood samples were collected through cardiac bleeding. To isolate the serum, blood samples were incubated at room temperature for 30 min, followed by centrifugation at 4400 rpm, 4° C. for 30 min. γ-T3 concentration in serum was analyzed using HPLC method below.
4.1.6 γ-Tocotrienol Extraction from Serums, Tumors and Organs—Serums were thawed and sonicated in an ultrasonic bath (Lab Companion, Vernon Hills, Ill., USA) for 5 min, followed by vortexing for 10 s. 100 μl of serum was transferred into IWAKI Pyrex glass tube (Jawa Tengah, Indonesia) containing 900 μl of water. For the tumors and organs preparation, the tissues were homogenized in 1 ml of water using borosilicate glass homogenizer (Fisher scientific, Pittsburgh, Pa.), followed by transferring to Pyrex glass tube. 5 μl of δ-T3 with purity 99% (100 mg of δ-T3 dissolved in 1 ml of ethanol) was used as an internal standard solution and was spiked into the mixture. The tube was vortexed for 10 s and sonicated for 2 min. 4 ml of the butylated hydroxytoluene (BHT) solution (5 mg of BHT in 100 ml of heptane) was added into the tube to minimize the oxidation of target analytes. Liquid-liquid extraction was performed by vortexing vigorously for 10 s. After liquid-liquid extraction, the tubes were centrifuged at 4000 rpm for 5 min in Heraeus Multifuge 3-SR Centrifuge (Newport Pagnell, Buckinghamshire, UK). 3.9 ml of the organic layer was transferred into another Pyrex tube. […]
4.1.7 Determination of γ-Tocotrienol level by high performance liquid chromatography—A normal phase of HPLC method was performed as a modification of procedures known in the art. […] The absorbance of γ-T3 was monitored with a […] set at an excitation wavelength of 290 nm and emission wavelength of 360 nm.

[3] = system: PC-3 cells; assay: Spheroid (prostasphere) formation assay, PC-3 cells; format: cell-based; settings: 5 μg/ml, untreated average 21 per well
Description: 5.1.7 Spheroid formation assay—Spheroid formation assay was performed with a protocol modified from previous study (Folkins C, p3560). Briefly, cells were first trypsinized, washed with 1× PBS and resuspended in DMEM F12 medium. Two hundred cells were added into each well of a 24-well-plate pre-coated with polyHEMA (Sigma, St. Louis, Mo.). Cells will be grown in DMEM/F12 mem (Invitrogen, Carlsbad, Calif.) supplemented with 4 μg/mL insulin (Sigma, St. Louis, Mo.), B27 (Invitrogen, Carlsbad, Calif.), 20 ng/mL EGF (Sigma, St. Louis, Mo.), and 20 ng/mL basic FGF (Invitrogen, Carlsbad, Calif.). Fresh medium with the above supplements was added every day. γ-T3 was added at indicated time points and the number of spheroids was counted at day 14 of the assay or at the end of the treatment. Each experiment was repeated in triplicates and each data point represented the mean and standard derivation.

[4] = system: PC-3-luc cells; assay: Orthotopic PC-3 xenograft model (tumorigenicity of pre-treated cells); format: in vivo, CB-17 SCID mice; settings: cells pre-treated with 5 μg/ml for 24 hrs; two weeks after implantation
Description: 5.1.9 Orthotopic PC-3 xenograft model—The orthotopic model was established with procedures known in the art. Briefly, 8-week-old CB-17 SCID mice were anesthetized and placed under a dissecting microscope (Olympus, Tokyo, Japan). An incision at the midline of abdomen was made and the dorsal prostate was exposed at the base of the bladder. Equal amount of viable PC3-luc cells (2.6×10^4 cells resuspended in 5 μl of serum free RPMI) with or without prior γ-T3 treatment for 24 hrs were injected into the dorsal prostates of the mice. Organs were replaced and the abdomen was closed. To detect the bioluminescent signal of the cells, mice were anesthetized and then injected with 80 mg/kg of D-luciferin solution by i.p. (Xenogen Corporation, Cranbury, N.J.). Signal was captured by Xenogen IVIS 100 series imaging system. Tumors progression was monitored by measuring the bioluminescent signal (units of photons per second per unit area) every 2 weeks until 6-week post tumor implantation. Mice were sacrificed by cervical dislocation and tumors were collected and fixed in 10% formalin. All surgical and animal handling procedures were carried out according to the guidelines of the Committee on the Use of Live Animals in Teaching and Research (CULATR), The University of Hong Kong.

## CC(C)=CCC/C(C)=C/CC/C(C)=C/CCC1(C)CCc2cc(O)c(C)c(C)c2O1 (stereo not drawn) [γ-T3, 7,8-dimethyltocotrienol]
[1]
  maximum tolerated dose (MTD): 12 mg
[2]
  time the plasma level remains constant: at least 72 hours
[2]; before the fall
  plasma γ-T3 level, starting value: 260 ppm
[2]; within 30 min after administration
  plasma γ-T3 level: 50 ppm
[3]
  prostasphere formation: no prostasphere
[4]
  mice that failed to develop visible tumor: 5 out of 7
